The values that follow are results of earlier work, collected in EP4660212A1, “POLYVINYL ALCOHOL-BASED POLYMER” (Japan Vam & Poval Co., Ltd., priority 2023, dated 2024).

For the data set the following is noted: water at 20°C.

Structures are written as SMILES.

Consider `c1ccc2cc3ccccc3cc2c1` [anthracene], for which the “solubility in 100 mL (100 g) of water” value is “about 0.13 mg/100 g water”.

With `CCOc1ccccc1C(N)=O` [ethenzamide], the “solubility in 100 mL (100 g) of water” value is listed as “about 100 mg/100 g water”.
